Assay results reported in paper PMC6287599, “2,6-Bis(2-Benzimidazolyl)Pyridine (BBP) Is a Potent and Selective Inhibitor of Small Conductance Calcium-Activated Potassium (SK) Channels” (Frontiers in Pharmacology, 2018).
“Also recorded” adds a separate entry of the source.

Target: Kv7.1/KCNE1 (Homo sapiens, UniProt P51787)
Assay: Two-electrode voltage clamp in Xenopus laevis oocytes, Kv7.1/KCNE1
Type: cell-based
Conditions: BBP 10 μM, TEVC, n = 5
Protocol: cRNA was prepared from linearized plasmids using the mMESSAGE mMACHINE T7 kit (Ambion, USA) and quantified by UV spectroscopy (NanoDrop, Thermo Scientific, Wilmington, USA). Xenopus laevis oocytes were acquired from EcoCyte Bioscience (Castrop-Rauxel, Germany). Oocytes were injected with 50 nL cRNA and currents were recorded after 2 days of incubation at 19°C. Currents were recorded at a sampling rate of 10 kHz using a TEVC amplifier (Dagan CA-1B; IL, USA), and borosilicate glass recording electrodes (Module Ohm, Herlev, Denmark), made with a DMZ Universal Puller (Zeitz Instruments, Martinsried, Germany) with a resistance of 0.5–1 MΩ when filled with 2 M KCl. Oocytes were superfused with Kulori (pH 7.4) solution containing NaCl 90 mM, KCl 4 mM, MgCl2 1 mM, CaCl2 1 mM, 4-(2-hydroxyethyl)-1-piperazineethanesulfonic acid 5 mM, and currents were elicited with the voltage protocols previously indicated (Skarsfeldt et al., [2016]), from a holding potential of −80 mV. […]
To assess the effect of BBP on other calcium-activated potassium channels (hBK, hSK3 WT, rSK3 H491N, and hIK), each individual current was first normalized to its cell size using membrane's capacitance (pA/pF) before statistical analysis. […] Statistical significance between saline and the effect of both BBP and the corresponding reference compound was determined for each channel using one-way ANOVA analysis. […]

c1cc(-c2nc3ccccc3[nH]2)nc(-c2nc3ccccc3[nH]2)c1 [BBP, 2,6-Bis(2-benzimidazolyl)pyridine]
Effect on Kv7.1/KCNE1 current: did not have any effect; also recorded: did not significantly affect
